# Results: PubChem BioAssay (NCI)
# “And” between values parts separate entries of the source, which are not always exact repeats. Equal values may be shown once.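 Five concentrations, 48 hours, 96-well plates. GI50: concentration for 50% inhibition of growth. TGI: concentration producing complete growth inhibition.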
# System: MDA-MB-468 breast
# Assay: NCI-60 cell line screen, 48 h
Structure (SMILES),GI50,TGI
COc1ccc(F)c(F)c1C(=O)c1cnc(NC2CCN(S(C)(=O)=O)CC2)nc1N,1370 nM and 687 nM,3540 nM and 2700 nM
CC(C)Oc1ccc(C(=O)Cn2ccnc2)cc1-n1c(CN2CCN(C(=O)COc3ccc(Cl)cc3)CC2)nc2ccccc2c1=O,9950 nM,35900 nM
COc1cccc(COc2cc(-n3cnc4ccccc43)sc2C(N)=O)c1,717 nM,6170 nM
COc1cccc2c(=O)c3c(sc12)c(NCCCNCCO)nc1ccccc13,1530 nM,3130 nM
O=C(c1cccs1)C1NO[N+]([O-])=C1c1cccs1 (configuration not stated),1690 nM,3380 nM
c1ccc(-c2nc(N3CCCNCC3)c3nc(-c4ccccc4)oc3n2)cc1,1720 nM,3370 nM
Nn1c(=O)n(-c2cccc(C(F)(F)F)c2)c(=O)c2cc(-c3ccc(F)cc3F)ccc21,1990 nM,6210 nM
CCNCCNc1cc(-c2ccc(C#N)cc2)c(C#N)c2nc3ccccc3n12,1790 nM,4150 nM
Nc1cc(-c2ccc(Cl)cc2)nn1-c1nnc(/C=C/c2ccco2)c(=O)[nH]1,3080 nM,22200 nM
CCOc1ccc(Nc2c3ccccc3nc3ccccc23)cc1,258 nM and 325 nM,987 nM and 2320 nM
CCCCCCCCCCCCCC[n+]1cccc(C(N)=O)c1,567 nM,2560 nM
COc1ccc(-c2cnoc2-c2cc(OC)c3c(c2)OCCO3)cc1,29.6 nM,1030 nM
COc1ccc(C(=O)c2nc3ccccc3n2CC(=O)c2ccc(Cl)cc2)cc1,2080 nM,11500 nM
CCn1c(-c2nonc2N)nc2ccncc21,> 25000 nM,> 25000 nM
O=[N+]([O-])c1ccc(-c2cc3c(Nc4ccc(Cl)c(C(F)(F)F)c4)ncnc3s2)cc1,1640 nM,6030 nM
CCOC(=O)N1CCN(CCCCCOc2ccccc2C2CCCCC2)CC1,2410 nM,8460 nM
COc1cc2nc(-c3ccc(C(F)(F)F)cc3)cc(OCCCN3CCCC3)c2cc1OC,1090 nM,3720 nM
CC(=Nc1ccc(S(N)(=O)=O)cc1)c1c(O)[nH]c2ccccc12,> 25000 nM,> 25000 nM
[2H]c1nc(=Nc2cc(NC(=O)C=C)c(N(C)CCN(C)C)cc2OC)[nH]c(-c2cn(C([2H])([2H])[2H])c3ccccc23)c1[2H],28.8 nM,957 nM
CC(C)[O-].CC(C)[O-].CN(CCN(C)Cc1cc(F)cc(F)c1[O-])Cc1cc(F)cc(F)c1[O-].[Ti+4],542 nM,2880 nM
COc1ccc(Nc2nccc(N3CCN(c4c5ccc(Cl)cc5nc5ccc(OC)cc45)CC3)n2)cc1,2690 nM,23000 nM
